Experimental findings from US5212159A, “Anticataract composition” (Senju Pharmaceutical Co., Ltd., priority 1991, dated 1993) are described below.

For this experiment, the system named is Streptozotocin-induced Diabetic Cataract. The experiment is described as follows: Inhibitory effect on streptozotocin-induced diabetic cataract (slit-lamp cataract score, Sasaki scale). The experiment is classed as in vivo, male SD rats. The procedure: Streptozotocin (hereafter abbreviated as STZ), 70 mg/kg, was administered intravenously to 28 male SD rats aged 4 weeks to induce diabetes. Thereafter, the animals were divided into three groups (two groups consisting of 10 animals each and a group consisting of 8 animals). […] The lens was examined with a slit lamp under mydriasis with Mydrin-P before the beginning of drug administration and every seven days after initiation of administration. The degree of cataract was scored according to the rating scale of Sasaki et al. (Ophthalmic Res. 15: 185-190, 1983) and the anticataract activity of each drug was tested by time series analysis of variance. Body weights were taken on each observation day. […] Rating scale of Sasaki et al. 0: No abnormality. […] Vacuoles are present in the equator of the lens. […] Vacuoles spread toward the anterior pole beneath the cortex of the anterior lens capsule. […] Vacuole begin to merge. […] The deep layer of the cortex of the anterior lens capsule is cloudy. […] The central part of the lens is milk white in color. […] Virtually the entire lens is milk white in color (mature cataract).

The mark [1] stands for this setting: compared with the control group, 100 mg/kg/day i.p. for 56 days.
Setting [2] is: day 7 after the beginning of treatment, 100 mg/kg/day i.p.
Where [3] appears, read: day 14 after the beginning of treatment, 100 mg/kg/day i.p.
Where [4] appears, read: day 21 after the beginning of treatment, 100 mg/kg/day i.p.
Setting [5] is: day 28 after the beginning of treatment, 100 mg/kg/day i.p.
[6] abbreviates: day 35 after the beginning of treatment, 100 mg/kg/day i.p.
The mark [7] stands for this setting: day 42 after the beginning of treatment, 100 mg/kg/day i.p.
The mark [8] stands for this setting: day 49 after the beginning of treatment, 100 mg/kg/day i.p.
[9] abbreviates: day 56 after the beginning of treatment, 100 mg/kg/day i.p.

Structures are written as SMILES.

Take `N[C@@H](CCC(=O)N[C@@H](CS)C(=O)NCC(=O)O)C(=O)O` [Glutathione, glutathione]: the “Degree of progression of cataract, time series analysis of variance” value under setting [1] is “no significant difference from the control group”. Further, the “Time at which cataract scores were reached” value under setting [1] is “scores of 5 and 6 were reached later than in the control group”. The “Number of eyes with cataract score 0” value is on record as 16 eyes (day 0 after the beginning of treatment, 100 mg/kg/day i.p.); 7 eyes under setting [2]; 1 eyes under setting [3]. Moreover, the “Number of eyes with cataract score 1” value worked out at 9 eyes under setting [2], 13 eyes under setting [3] and 3 eyes under setting [4]. The “Number of eyes with cataract score 2” value reads like this: under setting [3], 2 eyes; under setting [4], 13 eyes; under setting [5], 9 eyes; under setting [6], 3 eyes. The “Number of eyes with cataract score 3” value runs as follows: under setting [5], 7 eyes; under setting [6], 8 eyes; under setting [7], 11 eyes; under setting [8], 10 eyes; under setting [9], 4 eyes. In addition, the “Number of eyes with cataract score 4” value turned out to be 3 eyes under setting [6], 3 eyes under setting [7], 3 eyes under setting [8] and 6 eyes under setting [9]. For the same compound, the “Number of eyes with cataract score 5” value came to 1 eyes under setting [8] and 3 eyes under setting [9]. Under setting [9], the “Number of eyes with cataract score 6” value came to 1 eyes.
